In patent publication US10352947B2, “Use of markers in the identification of cardiotoxic agents and in the diagnosis and monitoring of cardiomyopathy and cardiovascular disease” (Berg LLC, priority 2012, dated 2019):
Like-named read-outs stand apart in the source and are kept apart here.

Legend:
CCDC47 = tested on: CCDC47
Description: Human serum samples from individuals with type 2 diabetes mellitus (T2D) and/or cardiomyopathy treated with various drugs and appropriate control subjects (n=120 total) were acquired from a commercial source. The characteristics of the group was as follows:
The level of the cardiomyopathy protein biomarker CCDC47 were measured in the serum samples from the T2DM individuals and drug treated T2DM individuals using commercially available ELISA kits. The assays were performed using the manufactures' instructions. An ROC analysis was performed to determine if serum CCDC47 levels correlated with cardiomyopathy.

serum lipids = test: Serum lipidomics of patients (diabetes / rosiglitazone / cardiomyopathy groups); assay type: in vivo, human
Excerpt: The platform methods provided herein enables integration of multi-omic signatures from human drug induced organ toxicity models. A substantive example of the platforms prowess that is under consideration here is a human drug induced cardio toxicity scenario. Human drug induced cardio toxicity models that comprises of i) Human cardiomyocyte based in vitro models of cardiotoxicity and ii) Serum samples from patients on a drug that induces cardiotoxicity. In vitro models include human cardio myocyte pretreated with fatty acids (linoleic, oleic acids and L-Carnitine) followed by treatment with a drug. The drug under consideration here is a thiazolidinedione. Cell based assays specifically measuring functional end points namely mitochondrial ATP, ROS, cell viability and mitochondrial bioenergetics were performed on in vitro models.
Proteomics was performed using the LTQ Orbitrap from Thermo Scientific as mentioned in earlier reports. Shortgun Lipidomics was performed using the TSQ vantage EMR triple Quad mass spec from thermo.
Standard procedures for merging, normalization and imputation were followed. Quality control plots for these steps are included in the accompanying folder.
Quantification of lipids that are common to serum lipid networks and pellet lipid networks. […] Lipid levels are expressed as a percent of normal lipid levels in FIG. 10B. […]

EDIL3 = test: Serum EDIL3 ELISA in normal, T2DM, Rosiglitazone-treated T2DM and cardiomyopathy individuals; assay type: in vivo, human; details: some Rosiglitazone-treated T2DM individuals vs. the other Rosiglitazone-treated T2DM individuals; FIG. 7
Description: (§1) The level of protein expression of cardiotoxicity biomarkers EDIL3 and NucB1 in the serum samples from these four groups of individuals were measured by using commercially available ELISA kits.
(§2) The expression levels of the cardiotoxicity biomarkers EDIL3 and NucB1 were determined and the average expression of each biomarker for each group of individuals was calculated.

NucB1 = test: Serum NucB1 ELISA in normal, T2DM, Rosiglitazone-treated T2DM and cardiomyopathy individuals; assay type: in vivo, human; details: some Rosiglitazone-treated T2DM individuals vs. the other Rosiglitazone-treated T2DM individuals; FIG. 8
Description: as §1, §2

level of CCDC47 in serum (CCDC47; human, in vivo)	level of CCDC47 in serum (CCDC47; subjects treated with the drug vs. subjects treated with the other two drugs (rosiglitazone, metformin, atorvastatin), ELISA, FIG. 13)	SMILES	serum level of lipid PE D18:0-20:3/D18:1-20:2/D16:0-22:3 (serum lipids; diabetic subjects on rosiglitazone with clinical diagnosis of cardiomyopathy vs. diabetic alone and diabetics on rosiglitazone without cardiomyopathy, FIG. 10)	serum ethanolamine glycerophospholipid species P16:0-20:4, D18:0-18:2, P16:0-22:6, P18:0-20:4 and D18:0-20:4 (serum lipids; diabetic vs. diabetic rosiglitazone no cardiomyopathy vs. diabetic rosiglitazone cardiomyopathy)	EDIL3 expression level in serum (EDIL3)	NucB1 expression level in serum (NucB1)
No significant difference		CC(C)c1c(C(=O)Nc2ccccc2)c(-c2ccccc2)c(-c2ccc(F)cc2)n1CC[C@@H](O)C[C@@H](O)CC(=O)O [atorvastatin]				
No significant difference		CN(C)C(=N)N=C(N)N [metformin]				
	significant increase	CN(CCOc1ccc(CC2SC(=O)NC2=O)cc1)c1ccccn1 (stereo not shown) [rosiglitazone]	significantly reduced	stratified along with the treatment with rosiglitazone	decreased	decreased
